{"source": "paper PMC11897524", "about": "(Frontiers in Pharmacology, 2025)", "assay_in_all_cases": "SelectScreen Z′-LYTE kinase assay", "format_in_all_cases": "biochemical", "key": {"[1]": {"target": "KDR (Homo sapiens, UniProt P35968)", "protocol": "(§1) The kinase selectivity profile of BST-4 was performed by the SelectScreen kinase profiling service (Thermo Fisher Scientific). Kinase selectivity assay was performed using Z′-LYTE ™ screening protocol kit. Briefly, the test compounds were screened in 1% DMSO (final). For 10-point titrations, perform a 3-fold dilution starting at a starting concentration of 50 µM. Then 2.5 µL 4× test compound, 2.4 µL kinase buffer, 5 µL 2× kinase mixture and 2.5 µL 4× ATP solution was added in black 384-well plate. After shaking for 30 s, the plates were incubated for 60 min at room temperature. Add developing reagent solution and shake the plate for 30 s, then incubate for 1 h at room temperature. The Fluorescence intensity per well was read using a fluorescence plate reader. SelectScreen® Kinase Profiling Service used XLfit from IDBS. The dose response curve was curve fit to model number 205 (sigmoidal dose-response model) and inhibition rates were calculated. 50% inhibition was used as a activity threshold. IC50 values were calculated based on curve fitting."}, "[2]": {"target": "FGFR1 (Homo sapiens, UniProt P11362)", "sequence (P11362 22-822)": "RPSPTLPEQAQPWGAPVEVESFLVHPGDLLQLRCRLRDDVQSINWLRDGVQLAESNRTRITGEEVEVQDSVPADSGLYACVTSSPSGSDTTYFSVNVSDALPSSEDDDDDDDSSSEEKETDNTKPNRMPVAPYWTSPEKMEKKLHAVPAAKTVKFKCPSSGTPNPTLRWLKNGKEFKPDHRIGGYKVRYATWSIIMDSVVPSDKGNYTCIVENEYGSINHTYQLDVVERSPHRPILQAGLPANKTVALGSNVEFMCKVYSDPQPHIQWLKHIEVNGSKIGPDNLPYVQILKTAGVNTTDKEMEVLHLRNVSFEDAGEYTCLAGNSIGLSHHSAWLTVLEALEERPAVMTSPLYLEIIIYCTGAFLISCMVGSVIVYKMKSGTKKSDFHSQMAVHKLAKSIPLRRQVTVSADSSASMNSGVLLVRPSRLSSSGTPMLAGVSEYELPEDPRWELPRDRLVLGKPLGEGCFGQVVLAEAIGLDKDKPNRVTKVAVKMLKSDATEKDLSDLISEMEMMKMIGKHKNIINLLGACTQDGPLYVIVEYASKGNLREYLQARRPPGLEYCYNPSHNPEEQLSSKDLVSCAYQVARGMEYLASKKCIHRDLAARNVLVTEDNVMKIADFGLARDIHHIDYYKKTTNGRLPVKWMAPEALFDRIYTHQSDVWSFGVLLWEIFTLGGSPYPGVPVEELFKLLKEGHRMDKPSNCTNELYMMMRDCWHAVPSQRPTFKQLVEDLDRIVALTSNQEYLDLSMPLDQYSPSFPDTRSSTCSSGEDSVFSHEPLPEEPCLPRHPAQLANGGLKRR", "protocol": "as §1"}, "[3]": {"target": "FRK (Homo sapiens, UniProt P42685)", "sequence (P42685 whole entry)": "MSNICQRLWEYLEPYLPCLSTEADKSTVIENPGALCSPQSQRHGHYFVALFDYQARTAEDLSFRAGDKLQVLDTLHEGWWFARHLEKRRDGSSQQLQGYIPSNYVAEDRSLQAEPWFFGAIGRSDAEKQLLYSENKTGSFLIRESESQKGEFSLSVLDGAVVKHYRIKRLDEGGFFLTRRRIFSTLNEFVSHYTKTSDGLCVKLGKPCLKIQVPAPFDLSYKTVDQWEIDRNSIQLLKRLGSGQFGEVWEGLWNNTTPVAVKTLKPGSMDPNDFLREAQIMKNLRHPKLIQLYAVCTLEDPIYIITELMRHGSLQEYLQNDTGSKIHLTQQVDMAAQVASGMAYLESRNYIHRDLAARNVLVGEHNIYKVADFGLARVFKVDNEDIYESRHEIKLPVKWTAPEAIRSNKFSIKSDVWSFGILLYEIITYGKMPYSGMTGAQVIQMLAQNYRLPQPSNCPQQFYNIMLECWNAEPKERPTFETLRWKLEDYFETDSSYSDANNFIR", "protocol": "as §1"}, "[4]": {"target": "ERBB2 (Homo sapiens, UniProt P04626)", "protocol": "as §1"}, "[5]": {"target": "HCK (Homo sapiens, UniProt P08631)", "protocol": "as §1"}, "[6]": {"target": "TEK (Homo sapiens, UniProt Q02763)", "protocol": "as §1"}, "[7]": {"target": "EPHA3 (Homo sapiens, UniProt P29320)", "protocol": "as §1"}, "[8]": {"target": "EPHB1 (Homo sapiens, UniProt P54762)", "protocol": "as §1"}, "[9]": {"target": "FYN (Homo sapiens, UniProt P06241)", "protocol": "as §1"}, "[10]": {"target": "FES (Homo sapiens, UniProt P07332)", "protocol": "as §1"}, "[11]": {"target": "IGF1R (Homo sapiens, UniProt P08069)", "protocol": "as §1"}, "[12]": {"target": "INSRR (Homo sapiens, UniProt P14616)", "protocol": "as §1"}, "[13]": {"target": "EPHB2 (Homo sapiens, UniProt P29323)", "protocol": "as §1"}, "[14]": {"target": "SYK (Homo sapiens, UniProt P43405)", "protocol": "as §1"}, "[15]": {"target": "ABL1 (Homo sapiens, UniProt P00519)", "protocol": "as §1"}, "[16]": {"target": "ABL2 (Homo sapiens, UniProt P42684)", "protocol": "as §1"}, "[17]": {"target": "ITK (Homo sapiens, UniProt Q08881)", "sequence (Q08881 whole entry)": "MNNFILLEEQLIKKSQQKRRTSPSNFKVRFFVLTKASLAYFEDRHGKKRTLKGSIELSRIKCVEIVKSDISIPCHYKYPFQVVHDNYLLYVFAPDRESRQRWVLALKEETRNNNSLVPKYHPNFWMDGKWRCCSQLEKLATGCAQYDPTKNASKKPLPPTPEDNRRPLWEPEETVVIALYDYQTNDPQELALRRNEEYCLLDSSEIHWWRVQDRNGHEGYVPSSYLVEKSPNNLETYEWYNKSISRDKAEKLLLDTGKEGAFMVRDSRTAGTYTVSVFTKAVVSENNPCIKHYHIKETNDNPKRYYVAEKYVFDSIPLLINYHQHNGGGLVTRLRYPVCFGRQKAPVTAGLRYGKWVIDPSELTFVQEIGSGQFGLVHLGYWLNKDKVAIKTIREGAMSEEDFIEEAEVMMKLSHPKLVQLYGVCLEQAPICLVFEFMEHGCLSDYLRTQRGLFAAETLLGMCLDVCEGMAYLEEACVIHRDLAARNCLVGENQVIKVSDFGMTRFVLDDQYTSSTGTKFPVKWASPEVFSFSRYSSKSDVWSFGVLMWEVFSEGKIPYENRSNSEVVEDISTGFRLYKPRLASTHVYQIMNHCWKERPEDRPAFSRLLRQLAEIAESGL", "protocol": "as §1"}, "[18]": {"target": "LTK (Homo sapiens, UniProt P29376)", "protocol": "as §1"}, "[19]": {"target": "PTK2B (Homo sapiens, UniProt Q14289)", "protocol": "as §1"}, "[20]": {"target": "ZAP70 (Homo sapiens, UniProt P43403)", "protocol": "as §1"}, "[21]": {"target": "FGFR4 (Homo sapiens, UniProt P22455)", "protocol": "as §1"}, "[22]": {"target": "EPHA5 (Homo sapiens, UniProt P54756)", "protocol": "as §1"}, "[23]": {"target": "EPHA2 (Homo sapiens, UniProt P29317)", "sequence (P29317 24-976)": "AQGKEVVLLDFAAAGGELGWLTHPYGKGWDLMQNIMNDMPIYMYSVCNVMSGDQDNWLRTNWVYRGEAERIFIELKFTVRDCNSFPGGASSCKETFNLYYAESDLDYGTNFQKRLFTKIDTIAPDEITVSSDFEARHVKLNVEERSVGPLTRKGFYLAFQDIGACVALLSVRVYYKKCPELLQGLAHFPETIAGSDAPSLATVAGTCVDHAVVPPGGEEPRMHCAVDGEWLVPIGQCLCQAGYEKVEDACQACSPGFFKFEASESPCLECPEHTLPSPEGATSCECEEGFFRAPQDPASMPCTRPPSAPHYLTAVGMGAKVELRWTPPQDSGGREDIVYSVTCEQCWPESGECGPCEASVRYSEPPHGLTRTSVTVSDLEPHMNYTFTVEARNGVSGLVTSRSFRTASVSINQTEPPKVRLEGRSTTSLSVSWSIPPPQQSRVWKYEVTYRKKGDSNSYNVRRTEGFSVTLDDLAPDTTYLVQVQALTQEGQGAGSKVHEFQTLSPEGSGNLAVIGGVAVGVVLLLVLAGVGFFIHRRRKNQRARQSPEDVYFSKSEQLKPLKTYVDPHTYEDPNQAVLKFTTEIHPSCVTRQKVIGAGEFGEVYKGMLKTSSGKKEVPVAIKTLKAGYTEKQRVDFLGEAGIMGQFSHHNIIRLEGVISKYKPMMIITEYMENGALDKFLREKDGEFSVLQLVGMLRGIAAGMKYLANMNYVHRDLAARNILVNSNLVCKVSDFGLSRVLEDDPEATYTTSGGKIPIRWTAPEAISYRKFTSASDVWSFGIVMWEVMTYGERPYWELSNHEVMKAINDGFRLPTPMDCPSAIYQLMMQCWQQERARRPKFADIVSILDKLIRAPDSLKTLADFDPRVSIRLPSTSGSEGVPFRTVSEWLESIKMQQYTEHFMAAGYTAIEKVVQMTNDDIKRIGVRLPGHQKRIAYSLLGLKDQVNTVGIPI", "protocol": "as §1"}, "[24]": {"target": "NTRK1 (Homo sapiens, UniProt P04629)", "protocol": "as §1"}, "[25]": {"target": "EPHA8 (Homo sapiens, UniProt P29322)", "protocol": "as §1"}, "[26]": {"target": "JAK2 (Homo sapiens, UniProt O60674)", "protocol": "as §1"}, "[27]": {"target": "PTK6 (Homo sapiens, UniProt Q13882)", "protocol": "as §1"}, "[28]": {"target": "FER (Homo sapiens, UniProt P16591)", "sequence (P16591 whole entry)": "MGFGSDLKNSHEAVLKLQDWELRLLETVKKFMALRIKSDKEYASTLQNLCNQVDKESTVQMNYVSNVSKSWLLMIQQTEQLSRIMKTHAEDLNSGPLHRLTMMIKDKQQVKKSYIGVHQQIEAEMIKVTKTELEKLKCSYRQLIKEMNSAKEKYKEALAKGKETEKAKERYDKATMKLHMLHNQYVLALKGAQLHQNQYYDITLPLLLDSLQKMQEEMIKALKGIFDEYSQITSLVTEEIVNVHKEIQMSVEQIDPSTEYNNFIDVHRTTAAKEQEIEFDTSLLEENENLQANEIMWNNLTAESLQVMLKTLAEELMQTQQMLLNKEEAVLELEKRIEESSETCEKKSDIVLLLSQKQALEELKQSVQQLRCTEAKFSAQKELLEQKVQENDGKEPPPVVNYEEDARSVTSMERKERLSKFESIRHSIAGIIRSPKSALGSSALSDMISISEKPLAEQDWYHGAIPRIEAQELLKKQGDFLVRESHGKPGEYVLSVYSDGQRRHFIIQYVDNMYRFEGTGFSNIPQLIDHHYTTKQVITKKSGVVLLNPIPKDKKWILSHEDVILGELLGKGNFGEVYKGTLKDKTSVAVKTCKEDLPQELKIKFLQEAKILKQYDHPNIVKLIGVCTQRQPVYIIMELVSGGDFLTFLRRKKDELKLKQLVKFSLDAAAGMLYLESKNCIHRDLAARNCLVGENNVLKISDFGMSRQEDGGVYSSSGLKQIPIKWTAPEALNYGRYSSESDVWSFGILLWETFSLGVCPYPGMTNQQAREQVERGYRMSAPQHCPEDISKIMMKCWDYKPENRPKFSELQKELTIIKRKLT", "protocol": "as §1"}, "[29]": {"target": "NTRK2 (Homo sapiens, UniProt Q16620)", "protocol": "as §1"}, "[30]": {"target": "MUSK (Homo sapiens, UniProt O15146)", "protocol": "as §1"}, "[31]": {"target": "EPHB3 (Homo sapiens, UniProt P54753)", "protocol": "as §1"}, "[32]": {"target": "PDGFRA (Homo sapiens, UniProt P16234)", "sequence (P16234 24-1089)": "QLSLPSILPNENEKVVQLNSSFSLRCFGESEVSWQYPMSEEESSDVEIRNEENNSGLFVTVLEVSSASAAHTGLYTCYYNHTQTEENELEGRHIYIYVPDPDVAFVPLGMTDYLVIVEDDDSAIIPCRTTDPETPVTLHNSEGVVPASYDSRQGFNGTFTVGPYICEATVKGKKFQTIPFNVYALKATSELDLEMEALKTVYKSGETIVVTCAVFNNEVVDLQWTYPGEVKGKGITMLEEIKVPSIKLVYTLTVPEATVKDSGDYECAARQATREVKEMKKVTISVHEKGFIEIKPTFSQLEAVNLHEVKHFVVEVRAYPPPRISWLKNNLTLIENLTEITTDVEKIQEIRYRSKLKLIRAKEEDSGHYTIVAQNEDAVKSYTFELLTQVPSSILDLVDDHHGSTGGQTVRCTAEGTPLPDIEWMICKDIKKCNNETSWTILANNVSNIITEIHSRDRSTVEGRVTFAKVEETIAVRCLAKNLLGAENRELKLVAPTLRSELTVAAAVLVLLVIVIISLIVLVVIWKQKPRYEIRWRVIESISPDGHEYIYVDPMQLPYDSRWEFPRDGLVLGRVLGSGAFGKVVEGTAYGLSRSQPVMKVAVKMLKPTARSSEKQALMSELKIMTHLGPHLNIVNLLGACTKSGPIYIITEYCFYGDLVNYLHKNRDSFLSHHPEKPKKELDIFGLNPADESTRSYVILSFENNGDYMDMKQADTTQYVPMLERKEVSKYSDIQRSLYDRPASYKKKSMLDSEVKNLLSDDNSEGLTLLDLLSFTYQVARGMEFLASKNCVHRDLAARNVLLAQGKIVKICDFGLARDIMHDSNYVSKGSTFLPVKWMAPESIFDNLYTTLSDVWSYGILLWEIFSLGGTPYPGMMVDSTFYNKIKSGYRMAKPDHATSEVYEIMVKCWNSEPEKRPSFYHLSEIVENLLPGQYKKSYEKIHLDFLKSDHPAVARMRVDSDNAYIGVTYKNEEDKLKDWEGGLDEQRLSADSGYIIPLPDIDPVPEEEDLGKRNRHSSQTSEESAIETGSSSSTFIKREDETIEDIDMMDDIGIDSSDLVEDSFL", "protocol": "as §1"}}, "data": [{"smiles": "CCS(=O)(=O)Cc1cnc(Oc2c(F)cc(F)cc2OCCCCOc2ccc(/C=C/c3cc(OC)cc(OC)c3)cc2)c(-c2cc(C)c3c(=O)[nH]ccn23)c1", "note": "[BST-4]", "values": [{"measurement": "IC50", "setting": "[1]", "result": "> 10", "unit": "µM"}, {"measurement": "inhibition at 1 µM", "setting": "[1]", "result": 1.51, "unit": "%"}, {"measurement": "IC50", "setting": "[2]", "result": "> 10", "unit": "µM"}, {"measurement": "inhibition at 1 µM", "setting": "[2]", "result": 0.59, "unit": "%"}, {"measurement": "IC50", "setting": "[3]", "result": "> 10", "unit": "µM"}, {"measurement": "inhibition at 1 µM", "setting": "[3]", "result": 0.95, "unit": "%"}, {"measurement": "IC50", "setting": "[4]", "result": "> 10", "unit": "µM"}, {"measurement": "inhibition at 1 µM", "setting": "[4]", "result": 4.43, "unit": "%"}, {"measurement": "IC50", "setting": "[5]", "result": "> 10", "unit": "µM"}, {"measurement": "inhibition at 1 µM", "setting": "[5]", "result": 0.86, "unit": "%"}, {"measurement": "IC50", "setting": "[6]", "result": "> 10", "unit": "µM"}, {"measurement": "inhibition at 1 µM", "setting": "[6]", "result": 4.16, "unit": "%"}, {"measurement": "IC50", "setting": "[7]", "result": "> 10", "unit": "µM"}, {"measurement": "inhibition at 1 µM", "setting": "[7]", "result": 0.89, "unit": "%"}, {"measurement": "IC50", "setting": "[8]", "result": "> 10", "unit": "µM"}, {"measurement": "inhibition at 1 µM", "setting": "[8]", "result": 3.35, "unit": "%"}, {"measurement": "IC50", "setting": "[9]", "result": "> 10", "unit": "µM"}, {"measurement": "inhibition at 1 µM", "setting": "[9]", "result": 2.03, "unit": "%"}, {"measurement": "IC50", "setting": "[10]", "result": "> 10", "unit": "µM"}, {"measurement": "inhibition at 1 µM", "setting": "[10]", "result": 0.05, "unit": "%"}, {"measurement": "IC50", "setting": "[11]", "result": "> 10", "unit": "µM"}, {"measurement": "inhibition at 1 µM", "setting": "[11]", "result": 0.91, "unit": "%"}, {"measurement": "IC50", "setting": "[12]", "result": "> 10", "unit": "µM"}, {"measurement": "inhibition at 1 µM", "setting": "[12]", "result": 0.62, "unit": "%"}, {"measurement": "IC50", "setting": "[13]", "result": "> 10", "unit": "µM"}, {"measurement": "inhibition at 1 µM", "setting": "[13]", "result": 0.51, "unit": "%"}, {"measurement": "IC50", "setting": "[14]", "result": "> 10", "unit": "µM"}, {"measurement": "inhibition at 1 µM", "setting": "[14]", "result": 1.92, "unit": "%"}, {"measurement": "IC50", "setting": "[15]", "result": "> 10", "unit": "µM"}, {"measurement": "inhibition at 1 µM", "setting": "[15]", "result": 0.31, "unit": "%"}, {"measurement": "IC50", "setting": "[16]", "result": "> 10", "unit": "µM"}, {"measurement": "inhibition at 1 µM", "setting": "[16]", "result": 0.44, "unit": "%"}, {"measurement": "IC50", "setting": "[17]", "result": "> 10", "unit": "µM"}, {"measurement": "inhibition at 1 µM", "setting": "[17]", "result": 0.75, "unit": "%"}, {"measurement": "IC50", "setting": "[18]", "result": "> 10", "unit": "µM"}, {"measurement": "inhibition at 1 µM", "setting": "[18]", "result": 0.21, "unit": "%"}, {"measurement": "IC50", "setting": "[19]", "result": "> 10", "unit": "µM"}, {"measurement": "inhibition at 1 µM", "setting": "[19]", "result": 0.73, "unit": "%"}, {"measurement": "IC50", "setting": "[20]", "result": "> 10", "unit": "µM"}, {"measurement": "inhibition at 1 µM", "setting": "[20]", "result": 0.68, "unit": "%"}, {"measurement": "IC50", "setting": "[21]", "result": "> 10", "unit": "µM"}, {"measurement": "inhibition at 1 µM", "setting": "[21]", "result": 0.68, "unit": "%"}, {"measurement": "IC50", "setting": "[22]", "result": "> 10", "unit": "µM"}, {"measurement": "inhibition at 1 µM", "setting": "[22]", "result": 3.17, "unit": "%"}, {"measurement": "IC50", "setting": "[23]", "result": "> 10", "unit": "µM"}, {"measurement": "inhibition at 1 µM", "setting": "[23]", "result": 0.5, "unit": "%"}, {"measurement": "IC50", "setting": "[24]", "result": "> 10", "unit": "µM"}, {"measurement": "inhibition at 1 µM", "setting": "[24]", "result": 0.67, "unit": "%"}, {"measurement": "IC50", "setting": "[25]", "result": "> 10", "unit": "µM"}, {"measurement": "inhibition at 1 µM", "setting": "[25]", "result": 0.72, "unit": "%"}, {"measurement": "IC50", "setting": "[26]", "result": "> 10", "unit": "µM"}, {"measurement": "inhibition at 1 µM", "setting": "[26]", "result": 0.18, "unit": "%"}, {"measurement": "IC50", "setting": "[27]", "result": "> 10", "unit": "µM"}, {"measurement": "inhibition at 1 µM", "setting": "[27]", "result": 2.34, "unit": "%"}, {"measurement": "IC50", "setting": "[28]", "result": "> 10", "unit": "µM"}, {"measurement": "inhibition at 1 µM", "setting": "[28]", "result": 0.03, "unit": "%"}, {"measurement": "IC50", "setting": "[29]", "result": "> 10", "unit": "µM"}, {"measurement": "inhibition at 1 µM", "setting": "[29]", "result": 1.22, "unit": "%"}, {"measurement": "IC50", "setting": "[30]", "result": "> 10", "unit": "µM"}, {"measurement": "inhibition at 1 µM", "setting": "[30]", "result": 1.26, "unit": "%"}, {"measurement": "IC50", "setting": "[31]", "result": "> 10", "unit": "µM"}, {"measurement": "inhibition at 1 µM", "setting": "[31]", "result": 0.98, "unit": "%"}, {"measurement": "IC50", "setting": "[32]", "result": "> 10", "unit": "µM"}, {"measurement": "inhibition at 1 µM", "setting": "[32]", "result": 0.37, "unit": "%"}]}]}
